Legend:
[1] = system: MDMBA-231 breast cancer cell line; test: MTT antiproliferative assay, MDMBA-231; format: cell-based; conditions: 10 µM, 24 h
Description: (§1) At least, three independent experiments were performed.

[2] = system: MCF-7 breast cancer cell line; test: MTT antiproliferative assay, MCF-7; format: cell-based; conditions: 10 µM, 24 h
Description: as §1

[3] = system: HeLa cervical cancer cell line; test: MTT antiproliferative assay, HeLa; format: cell-based; conditions: 10 µM, 24 h
Description: as §1

FRK = biological target: T1, FRK (Homo sapiens, UniProt P42685); test: Z`-LYTE kinase profiling, FRK; format: biochemical
T1 construct: purchased Invitrogen/Life Technologies
T1 sequence (P42685 whole entry): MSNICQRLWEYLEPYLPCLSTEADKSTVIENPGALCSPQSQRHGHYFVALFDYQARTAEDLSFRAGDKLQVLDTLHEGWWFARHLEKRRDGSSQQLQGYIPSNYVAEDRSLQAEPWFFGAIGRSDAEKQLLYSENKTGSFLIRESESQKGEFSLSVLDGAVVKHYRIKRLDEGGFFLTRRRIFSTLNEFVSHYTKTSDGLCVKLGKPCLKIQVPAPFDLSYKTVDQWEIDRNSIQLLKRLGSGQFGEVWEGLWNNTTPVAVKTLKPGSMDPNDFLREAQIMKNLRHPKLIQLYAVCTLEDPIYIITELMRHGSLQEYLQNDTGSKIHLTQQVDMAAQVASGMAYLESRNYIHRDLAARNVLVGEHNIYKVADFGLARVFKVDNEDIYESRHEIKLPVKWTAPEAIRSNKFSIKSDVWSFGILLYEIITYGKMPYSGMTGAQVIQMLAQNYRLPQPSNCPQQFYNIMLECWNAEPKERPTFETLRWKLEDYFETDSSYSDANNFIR

IGF-1R = biological target: T2, IGF-1R (Homo sapiens, UniProt P08069); test: Z`-LYTE kinase profiling, IGF-1R; format: biochemical
T2 construct: purchased Invitrogen/Life Technologies

BTK = biological target: T3, BTK (Homo sapiens, UniProt Q06187); test: Z`-LYTE kinase profiling, BTK; format: biochemical
T3 construct: purchased Invitrogen/Life Technologies

c-Src = biological target: T4, c-Src (Homo sapiens, UniProt P12931); test: Z`-LYTE kinase profiling, c-Src; format: biochemical
T4 construct: purchased Invitrogen/Life Technologies
T4 sequence (P12931 whole entry): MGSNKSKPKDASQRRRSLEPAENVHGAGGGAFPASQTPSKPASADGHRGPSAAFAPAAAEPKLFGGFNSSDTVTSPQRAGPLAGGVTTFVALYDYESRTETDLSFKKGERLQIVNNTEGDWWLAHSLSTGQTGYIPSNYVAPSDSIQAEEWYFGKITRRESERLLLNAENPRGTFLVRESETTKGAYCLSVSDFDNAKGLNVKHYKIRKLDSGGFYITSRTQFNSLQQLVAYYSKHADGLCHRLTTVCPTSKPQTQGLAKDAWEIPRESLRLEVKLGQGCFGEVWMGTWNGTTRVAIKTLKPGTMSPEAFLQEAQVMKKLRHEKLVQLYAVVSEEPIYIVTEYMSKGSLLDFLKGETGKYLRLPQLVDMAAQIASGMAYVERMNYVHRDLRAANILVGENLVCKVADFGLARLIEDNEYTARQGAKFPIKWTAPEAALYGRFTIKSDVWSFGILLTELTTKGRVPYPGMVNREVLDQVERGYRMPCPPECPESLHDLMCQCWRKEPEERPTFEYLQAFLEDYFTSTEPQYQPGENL

VEGFR-1 = biological target: T5, VEGFR-1 (Homo sapiens, UniProt P17948); test: Z`-LYTE kinase profiling, VEGFR-1; format: biochemical
T5 construct: purchased Invitrogen/Life Technologies
T5 sequence (P17948 27-1338): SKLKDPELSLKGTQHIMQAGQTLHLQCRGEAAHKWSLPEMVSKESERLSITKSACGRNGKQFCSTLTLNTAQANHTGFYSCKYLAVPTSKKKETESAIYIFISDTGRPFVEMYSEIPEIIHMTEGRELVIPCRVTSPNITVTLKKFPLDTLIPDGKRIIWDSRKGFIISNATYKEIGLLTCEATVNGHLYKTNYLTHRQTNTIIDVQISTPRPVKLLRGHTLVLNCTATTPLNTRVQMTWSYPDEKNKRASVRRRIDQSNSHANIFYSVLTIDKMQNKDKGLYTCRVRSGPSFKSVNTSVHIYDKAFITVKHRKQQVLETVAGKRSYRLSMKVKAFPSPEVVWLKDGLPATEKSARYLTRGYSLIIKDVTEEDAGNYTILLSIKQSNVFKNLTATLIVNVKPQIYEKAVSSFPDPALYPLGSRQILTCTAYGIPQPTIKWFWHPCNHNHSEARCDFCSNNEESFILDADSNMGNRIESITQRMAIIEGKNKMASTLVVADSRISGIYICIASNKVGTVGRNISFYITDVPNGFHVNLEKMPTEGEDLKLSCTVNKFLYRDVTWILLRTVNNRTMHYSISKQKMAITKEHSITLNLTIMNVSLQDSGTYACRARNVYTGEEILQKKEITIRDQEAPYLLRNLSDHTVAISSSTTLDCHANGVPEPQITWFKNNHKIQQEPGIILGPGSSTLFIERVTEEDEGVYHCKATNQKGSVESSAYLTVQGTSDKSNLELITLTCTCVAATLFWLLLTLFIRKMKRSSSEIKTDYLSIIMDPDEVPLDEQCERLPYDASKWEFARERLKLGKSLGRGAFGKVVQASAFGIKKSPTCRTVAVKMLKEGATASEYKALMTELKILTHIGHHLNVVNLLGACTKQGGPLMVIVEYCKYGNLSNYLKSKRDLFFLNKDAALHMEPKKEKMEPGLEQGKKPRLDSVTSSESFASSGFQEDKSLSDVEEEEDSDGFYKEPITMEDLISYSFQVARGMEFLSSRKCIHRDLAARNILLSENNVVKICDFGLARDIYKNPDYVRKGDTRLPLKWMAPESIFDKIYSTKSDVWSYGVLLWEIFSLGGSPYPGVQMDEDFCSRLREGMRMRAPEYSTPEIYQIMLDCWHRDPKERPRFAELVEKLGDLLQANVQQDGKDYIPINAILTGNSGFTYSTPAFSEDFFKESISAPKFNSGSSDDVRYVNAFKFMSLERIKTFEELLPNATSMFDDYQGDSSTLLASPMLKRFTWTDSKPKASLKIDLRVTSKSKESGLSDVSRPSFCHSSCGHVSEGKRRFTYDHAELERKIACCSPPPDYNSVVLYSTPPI

VEGFR-2 = biological target: T6, VEGFR-2 (Homo sapiens, UniProt P35968); test: Z`-LYTE kinase profiling, VEGFR-2; format: biochemical
T6 construct: purchased Invitrogen/Life Technologies
T6 sequence (P35968 20-1356): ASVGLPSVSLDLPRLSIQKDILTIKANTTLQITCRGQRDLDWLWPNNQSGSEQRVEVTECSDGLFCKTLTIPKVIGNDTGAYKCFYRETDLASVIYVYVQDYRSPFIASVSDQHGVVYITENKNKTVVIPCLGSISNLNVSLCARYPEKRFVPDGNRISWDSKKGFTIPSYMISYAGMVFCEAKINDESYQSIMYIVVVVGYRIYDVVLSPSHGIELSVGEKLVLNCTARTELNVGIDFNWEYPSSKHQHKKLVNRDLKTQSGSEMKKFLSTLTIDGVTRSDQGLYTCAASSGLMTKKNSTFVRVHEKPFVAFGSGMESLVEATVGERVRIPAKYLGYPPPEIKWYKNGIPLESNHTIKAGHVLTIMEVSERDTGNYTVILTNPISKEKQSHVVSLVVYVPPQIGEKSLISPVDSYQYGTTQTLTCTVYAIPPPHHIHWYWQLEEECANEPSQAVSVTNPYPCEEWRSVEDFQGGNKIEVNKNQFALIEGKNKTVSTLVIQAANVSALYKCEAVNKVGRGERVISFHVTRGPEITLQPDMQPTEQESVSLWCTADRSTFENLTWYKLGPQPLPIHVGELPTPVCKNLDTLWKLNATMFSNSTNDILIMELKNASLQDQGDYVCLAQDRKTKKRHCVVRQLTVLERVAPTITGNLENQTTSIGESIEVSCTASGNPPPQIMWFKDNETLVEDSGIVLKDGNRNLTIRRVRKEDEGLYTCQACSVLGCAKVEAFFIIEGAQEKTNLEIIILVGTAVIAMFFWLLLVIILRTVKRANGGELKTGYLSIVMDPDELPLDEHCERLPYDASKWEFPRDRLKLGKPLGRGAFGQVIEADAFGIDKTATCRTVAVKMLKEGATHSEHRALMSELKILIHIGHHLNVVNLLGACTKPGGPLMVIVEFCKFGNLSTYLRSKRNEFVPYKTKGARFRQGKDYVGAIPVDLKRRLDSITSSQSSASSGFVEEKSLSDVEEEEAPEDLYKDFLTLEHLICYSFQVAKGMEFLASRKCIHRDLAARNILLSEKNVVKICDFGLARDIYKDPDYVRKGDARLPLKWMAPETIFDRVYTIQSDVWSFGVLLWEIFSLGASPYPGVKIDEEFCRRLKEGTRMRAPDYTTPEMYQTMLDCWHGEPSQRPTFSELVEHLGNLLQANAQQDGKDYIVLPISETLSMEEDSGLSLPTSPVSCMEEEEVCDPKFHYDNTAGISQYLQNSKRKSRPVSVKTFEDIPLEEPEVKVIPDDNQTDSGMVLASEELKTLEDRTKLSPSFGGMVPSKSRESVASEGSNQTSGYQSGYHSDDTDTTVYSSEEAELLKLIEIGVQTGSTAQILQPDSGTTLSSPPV

HER-2 = biological target: T7, HER-2 (Homo sapiens, UniProt P04626); test: Z`-LYTE kinase profiling, HER-2; format: biochemical
T7 construct: purchased Invitrogen/Life Technologies

[4] = system: DLD-1 colorectal cancer cell line; test: MTT antiproliferative assay, DLD-1; conditions: for GI% DLD1: 10 µM, 24 h, MTT; for IC50: Homo sapiens, DLD-1, 24 h, read-out: IC50 DLD1 (half maximal growth inhibitory concentration)
Description: (§2) After the incubation of the tested compounds for 24 h, the percent growth inhibition (GI%) was calculated.
(§3) Cells were seeded at 1 × 10^4 cells/well and cultured overnight in a 96-well plate. […] Then, 150 µl DMSO was used to solubilise MTT formazan crystals. Finally, the plates were shaken, and the optical density was determined at 570 nm using ELISA plate reader. At least, three independent experiments were performed. Percentage of growth inhibition was determined as (1-[OD of treated cells/OD of control cells]). […] The IC50 values were calculated using Prism v0.8 software (GraphPad Software Inc., La Jolla, CA).

[5] = system: HCT-116 colorectal cancer cell line; test: MTT antiproliferative assay, HCT-116; conditions: for GI% HCT-116: 10 µM, 24 h, MTT; for IC50: Homo sapiens, HCT-116, 24 h, read-out: IC50 HCT-116 (half maximal growth inhibitory concentration)
Description: as §2, §3

FAK = FAK (Homo sapiens, UniProt Q05397); test: Z`-LYTE kinase inhibitory assay, FAK
EGFR = EGFR (Homo sapiens, UniProt P00533); test: Z`-LYTE kinase inhibitory assay, EGFR
EGFR, sequence (P00533 25-1210): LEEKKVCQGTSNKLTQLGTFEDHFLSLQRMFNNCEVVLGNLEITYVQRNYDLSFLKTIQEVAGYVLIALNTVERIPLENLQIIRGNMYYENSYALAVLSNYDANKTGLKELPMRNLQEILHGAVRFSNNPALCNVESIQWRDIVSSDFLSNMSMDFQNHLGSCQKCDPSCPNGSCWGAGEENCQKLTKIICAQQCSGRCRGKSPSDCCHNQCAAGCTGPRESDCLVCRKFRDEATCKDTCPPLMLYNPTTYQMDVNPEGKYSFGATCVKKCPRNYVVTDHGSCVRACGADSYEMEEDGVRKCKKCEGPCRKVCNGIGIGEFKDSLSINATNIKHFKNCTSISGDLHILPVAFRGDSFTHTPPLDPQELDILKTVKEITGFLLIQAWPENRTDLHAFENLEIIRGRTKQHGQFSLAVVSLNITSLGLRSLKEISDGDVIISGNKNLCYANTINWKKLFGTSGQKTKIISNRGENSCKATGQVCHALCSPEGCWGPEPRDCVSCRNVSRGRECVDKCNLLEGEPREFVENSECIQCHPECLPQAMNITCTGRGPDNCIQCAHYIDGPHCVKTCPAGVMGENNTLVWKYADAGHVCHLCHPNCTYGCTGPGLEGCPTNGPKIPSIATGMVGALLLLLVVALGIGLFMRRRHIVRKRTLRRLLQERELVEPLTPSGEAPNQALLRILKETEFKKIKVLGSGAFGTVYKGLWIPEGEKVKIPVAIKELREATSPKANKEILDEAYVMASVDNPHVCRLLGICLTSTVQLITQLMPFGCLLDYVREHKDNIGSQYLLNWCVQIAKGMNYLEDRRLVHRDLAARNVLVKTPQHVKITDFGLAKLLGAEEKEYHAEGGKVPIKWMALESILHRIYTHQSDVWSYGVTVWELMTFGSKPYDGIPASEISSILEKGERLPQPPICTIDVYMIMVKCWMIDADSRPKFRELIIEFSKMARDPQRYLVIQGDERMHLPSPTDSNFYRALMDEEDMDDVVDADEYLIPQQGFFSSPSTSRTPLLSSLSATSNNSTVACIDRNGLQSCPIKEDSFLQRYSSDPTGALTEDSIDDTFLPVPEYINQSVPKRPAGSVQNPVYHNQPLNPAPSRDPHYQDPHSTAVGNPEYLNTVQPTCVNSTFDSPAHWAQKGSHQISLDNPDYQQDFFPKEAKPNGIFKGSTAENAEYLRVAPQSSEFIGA

recombinant human TOP1 = biological target: T8, recombinant human TOP1 (Homo sapiens, UniProt P11387); test: Topoisomerase I-mediated DNA cleavage assay; conditions: tested at 0.1, 1, 10, 100 µM
T8 sequence (P11387 1-765): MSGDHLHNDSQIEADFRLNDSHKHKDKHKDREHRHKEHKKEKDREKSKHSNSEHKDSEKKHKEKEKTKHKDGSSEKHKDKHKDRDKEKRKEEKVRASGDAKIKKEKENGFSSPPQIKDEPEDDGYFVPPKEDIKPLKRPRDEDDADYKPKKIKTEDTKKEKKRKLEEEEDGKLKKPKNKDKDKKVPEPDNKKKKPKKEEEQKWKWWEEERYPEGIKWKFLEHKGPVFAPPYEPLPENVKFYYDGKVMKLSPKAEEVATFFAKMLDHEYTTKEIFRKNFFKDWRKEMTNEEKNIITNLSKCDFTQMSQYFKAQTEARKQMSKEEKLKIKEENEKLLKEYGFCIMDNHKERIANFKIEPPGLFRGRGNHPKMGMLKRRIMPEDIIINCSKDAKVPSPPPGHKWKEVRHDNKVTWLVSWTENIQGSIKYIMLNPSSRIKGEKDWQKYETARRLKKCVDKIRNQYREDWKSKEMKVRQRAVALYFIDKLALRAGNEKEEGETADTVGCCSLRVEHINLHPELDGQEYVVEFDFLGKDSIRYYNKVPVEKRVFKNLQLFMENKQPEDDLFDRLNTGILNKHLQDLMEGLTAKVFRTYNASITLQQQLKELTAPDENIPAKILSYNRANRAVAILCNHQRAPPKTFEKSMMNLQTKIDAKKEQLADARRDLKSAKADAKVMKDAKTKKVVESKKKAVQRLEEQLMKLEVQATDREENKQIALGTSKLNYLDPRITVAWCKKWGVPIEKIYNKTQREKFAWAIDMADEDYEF

IC50 (FRK) [nM] | IC50 (IGF-1R) [nM] | IC50 (BTK) [nM] | IC50 (c-Src) [nM] | IC50 (VEGFR-1) [nM] | IC50 (VEGFR-2) [nM] | IC50 (HER-2) [nM] | melting point [°C] | IC50 [4] [nM] | IC50 [5] [nM] | IC50 (FAK) [nM] | IC50 (EGFR) [nM] | TOP1 inhibitory activity (semiquantitative score relative to 1 µM CPT) (recombinant human TOP1) | fold decreased activity than Gefitinib, EGFR (EGFR; from IC50 values) [fold] | Structure (SMILES) | GI% MDMBA-231 [1] [%] | GI% MCF-7 [2] [%] | GI% Hela [3] [%] | GI% DLD1 [4] [%] | GI% HCT-116 [5] [%]
8910 | 198 | 4760 | 1030 | 4390 | 8550 | 1020 | 110 to 112 | > 100000 | > 100000 | 298.7 ± 1.94 | 244 ± 8.41 | 0 | – | CN1CCN(CCCOc2cc(-c3ccc(C(F)(F)F)cc3)nc3ccccc23)CC1 [10a, 4-(3-(4-methylpiperazin-1-yl)propoxy)-2-(4-(trifluoromethyl)phenyl)quinoline] | 37.15 | 14.26 | 25.64 | 22.51 | 18.64
4370 | 5740 | 2980 | 7780 | 8510 | 8680 | 598 | 68 to 70 | 40300 ± 2090 | > 100000 | 165 ± 5.37 | 180 ± 9.12 | 0 | – | FC(F)(F)c1ccc(-c2cc(OCCCNC3CCCCC3)c3ccccc3n2)cc1 [10b, N-(3-((2-(4-(trifluoromethyl)phenyl)quinolin-4-yl)oxy)propyl)cyclohexanamine] | 45.35 | 64.81 | 55.49 | 35.72 | 24.10
734 | 5370 | 196 | 55.3 | 1760 | 48.3 | 34.8 | 146 to 148 | > 100000 | > 100000 | 225 ± 14 | 125 ± 7.94 | −/+ (−/+: 0–25% 1 µM CPT) | – | Clc1ccc(-c2cc(OCCCn3ccnc3)c3cc4c(cc3n2)OCO4)cc1 [12a, 8-(3-(1H-imidazol-1-yl)propoxy)-6-(4-chlorophenyl)-[1,3] dioxolo[4,5-g]quinoline] | 4.98 | 11.72 | 22.79 | 21.25 | 16.25
1130 | 7160 | 213 | 42.3 | 5990 | 27 | 27.3 | 153 to 155 | 8360 ± 1080 | 14400 ± 3690 | 70.9 ± 3.16 | 95.4 ± 2.05 | −/+ (−/+: 0–25% 1 µM CPT) | 2 | Clc1ccc(-c2cc(OCCCN3CCOCC3)c3cc4c(cc3n2)OCO4)cc1 [12b, 6-(4-chlorophenyl)-8-(3-morpholinopropoxy)-[1,3]dioxolo [4,5-g]quinoline] | 14.28 | 64.38 | 25.39 | 72.95 | 31.28
4880 | 9000 | 99.5 | 119 | 7720 | 56.9 | 169 | 125 to 127 | 9120 ± 2110 | 6370 ± 1090 | 111 ± 8.94 | 247 ± 12.3 | 0 | – | FC(F)(F)c1ccc(-c2cc(OCCCn3ccnc3)c3cc4c(cc3n2)OCO4)cc1 [12c, 8-(3-(1H-imidazol-1-yl)propoxy)-6-(4-(trifluoromethyl)phenyl)-[1,3]dioxolo[4,5-g]qui-noline] | 61.94 | 43.27 | 68.22 | 71.94 | 80.49

Second part, the molecule before the results:

Structure (SMILES) | IC50 (FRK) [nM] | IC50 (IGF-1R) [nM] | IC50 (BTK) [nM] | IC50 (c-Src) [nM] | IC50 (VEGFR-1) [nM] | IC50 (VEGFR-2) [nM] | IC50 (HER-2) [nM] | melting point [°C] | IC50 [4] [nM] | IC50 [5] [nM] | IC50 (FAK) [nM] | IC50 (EGFR) [nM] | TOP1 inhibitory activity (semiquantitative score relative to 1 µM CPT) (recombinant human TOP1) | fold decreased activity than Gefitinib, EGFR (EGFR; from IC50 values) [fold] | GI% MDMBA-231 [1] [%] | GI% MCF-7 [2] [%] | GI% Hela [3] [%] | GI% DLD1 [4] [%] | GI% HCT-116 [5] [%]
COc1cc2nc(-c3ccc(C)cc3)cc(OCCCNC3CCN(C)CC3)c2cc1OC [6m, N-(3-((6,7-dimethoxy-2-(p-tolyl)quinolin-4-yl)oxy)propyl)-1-methylpiperidin-4-amine] | 2760 | 2810 | 2460 | 980 | 865 | 2830 | 332 | 66 to 68 | 54200 ± 2110 | 43100 ± 1050 | 172 ± 13.7 | 154 ± 12.8 | −/+ (−/+: 0–25% 1 µM CPT) | – | 8.16 | 22.09 | 30.19 | 22.16 | 24.31
COc1cc2nc(-c3ccc(C)cc3)cc(OCCCNCC3CCCO3)c2cc1OC (stereo not shown) [6n, 3-((6,7-dimethoxy-2-(p-tolyl)quinolin-4-yl)oxy)-N-((tetrahydrofuran-2-yl)methyl)propa-n-1-amine] | 2520 | 2810 | 819 | 82.7 | 556 | 1190 | 1390 | 60 to 62 | 6110 ± 1800 | 8690 ± 940 | 44.4 ± 2.94 | 41.8 ± 2.34 | 0 | – | 14.39 | 58.15 | 71.12 | 81.34 | 64.26
COc1cc2nc(-c3ccc(C)cc3)cc(OCCCn3ccnc3)c2cc1OC [6o, 4-(3-(1H-imidazol-1-yl)propoxy)-6,7-dimethoxy-2-(p-tolyl)quinoline] | 786 | 408 | 3830 | 3490 | 511 | 3620 | 1380 | 203 to 205 | > 100000 | > 100000 | 205 ± 8.04 | 256 ± 6.94 | 0 | – | 8.64 | 5.36 | 9.16 | 12.36 | 1.08
COc1cc2nc(-c3ccc(-c4ccco4)cc3)cc(OCCCN3CCN(C)CC3)c2cc1OC [8a, 2-(4-(furan-2-yl)phenyl)-6,7-dimethoxy-4-(3-(4-methylpiperazin-1-yl)propoxy)quinoline] | 846 | 1060 | 5600 | 4540 | 648 | 6370 | 989 | 135 to 137 | > 100000 | > 100000 | 198 ± 12.3 | 349 ± 14 | 0 | – | 4.40 | 7.22 | 11.78 | 5.15 | 1.02
COc1cc2nc(-c3ccc(-c4cccs4)cc3)cc(OCCCN3CCN(C)CC3)c2cc1OC [8b, 6,7-dimethoxy-4–(3-(4-methylpiperazin-1-yl)propoxy)-2–(4-(thiophen-2-yl)phenyl)quinol-ine] | 3920 | 3900 | 2920 | 7200 | 6960 | 8370 | 1070 | 155 to 157 | 7340 ± 1220 | 9840 ± 680 | 29.8 ± 2.37 | 35.5 ± 1.5 | 0 | – | 36.87 | 74.90 | 50.81 | 74.25 | 52.10
